Source: a compilation of properties of binary mixtures (doi:10.1007/s10953-014-0137-8)

Test: xn = mol fraction of the nth substance listed
Conditions: 101 kPa

CCCC[n+]1ccn(C)c1.F[B-](F)(F)F + O
Conditions	electrical conductivity [S/m]	speed of sound [m/s]
308.15 K, x2 = 0.5121	–	1561.8
308.15 K, x2 = 0.7866	–	1582.8
308.15 K, x2 = 0.8493	6.09	1587.5
308.15 K, x2 = 0.9	–	1588.3
308.15 K, x2 = 0.9001	6.39	–
308.15 K, x2 = 0.9252	6.6	1586
308.15 K, x2 = 0.9496	6.32	1581.6
308.15 K, x2 = 0.9744	5.08	1570.2
313.15 K, x2 = 0.0964	–	1534.6
313.15 K, x2 = 0.2639	–	1539.6
313.15 K, x2 = 0.3058	1.76	–
313.15 K, x2 = 0.3901	–	1544.9
313.15 K, x2 = 0.4991	2.79	–
313.15 K, x2 = 0.5121	–	1550.6
313.15 K, x2 = 0.6369	–	1559
313.15 K, x2 = 0.7002	4.67	1565
313.15 K, x2 = 0.7456	–	1569.3
313.15 K, x2 = 0.7866	–	1573.2
313.15 K, x2 = 0.9	–	1582.1
313.15 K, x2 = 0.9001	6.94	–
313.15 K, x2 = 0.9252	7.12	1581.6
313.15 K, x2 = 0.9496	6.65	1579.4
318.15 K, x2 = 0.1014	1.12	–
318.15 K, x2 = 0.4991	3.1	–
318.15 K, x2 = 0.5121	–	1539.3
318.15 K, x2 = 0.7002	5.29	1554
318.15 K, x2 = 0.7456	–	1558.4
318.15 K, x2 = 0.7866	–	1562
318.15 K, x2 = 0.8493	7.3	1570.2
318.15 K, x2 = 0.9001	7.66	–
318.15 K, x2 = 0.9252	7.99	1576.4
318.15 K, x2 = 0.9496	7.34	1576.4
318.15 K, x2 = 0.9744	6.16	1571.6
323.15 K, x2 = 0.0964	–	1511.5
323.15 K, x2 = 0.1014	1.37	–
323.15 K, x2 = 0.2639	–	1516.4
323.15 K, x2 = 0.3058	2.3	–
323.15 K, x2 = 0.3901	–	1522.1
323.15 K, x2 = 0.4991	3.31	–
323.15 K, x2 = 0.5121	–	1528
323.15 K, x2 = 0.6369	–	1534.5
323.15 K, x2 = 0.7002	5.74	1542.4
323.15 K, x2 = 0.7456	–	1546.8
323.15 K, x2 = 0.7866	–	1552.2
323.15 K, x2 = 0.9	–	1567.8
323.15 K, x2 = 0.9001	8.59	–
323.15 K, x2 = 0.9252	8.71	1570.5
